# Source: patent publication US8877748B2, “Heterocyclic fused anthraquinone derivatives, manufacturing method and pharmaceutical composition using thereof” (National Defense Medical Center, priority 2012, dated 2014)
# Tests used:
# HL-60, TB = assay: NCI one-dose screening, leukemia HL-60, TB; type: cell-based, human; conditions: 10 μM
# MOLT-4 = assay: NCI one-dose screening, leukemia MOLT-4; type: cell-based, human; conditions: 10 μM
# SR = assay: NCI one-dose screening, leukemia SR; type: cell-based, human; conditions: 10 μM
# PRMI-8226 cell line = assay: NCI one-dose screening, leukemia PRMI-8226; type: cell-based, human; conditions: 10 μM
# K562cell line = assay: NCI one-dose screening, leukemia K562; type: cell-based, human; conditions: 10 μM
# EKVX = assay: NCI one-dose screening, non-small cell lung cancer EKVX; type: cell-based, human; conditions: 10 μM
# HOP-62 = assay: NCI one-dose screening, non-small cell lung cancer HOP-62; type: cell-based, human; conditions: 10 μM
# HOP-92 = assay: NCI one-dose screening, non-small cell lung cancer HOP-92; type: cell-based, human; conditions: 10 μM
# NCI-H226 = assay: NCI one-dose screening, non-small cell lung cancer NCI-H226; type: cell-based, human; conditions: 10 μM
# NCI-H23 = assay: NCI one-dose screening, non-small cell lung cancer NCI-H23; type: cell-based, human; conditions: 10 μM
# NCI-H460 = assay: NCI one-dose screening, non-small cell lung cancer NCI-H460; type: cell-based, human; conditions: 10 μM
# NCI-H522 = assay: NCI one-dose screening, non-small cell lung cancer NCI-H522; type: cell-based, human; conditions: 10 μM
# A549/ATCC = assay: NCI one-dose screening, non-small cell lung cancer A549/ATCC; type: cell-based, human; conditions: 10 μM
# COLO 205 = assay: NCI one-dose screening, colon cancer COLO 205; type: cell-based, human; conditions: 10 μM
# HCC-2998 = assay: NCI one-dose screening, colon cancer HCC-2998; type: cell-based, human; conditions: 10 μM
# HCT-116 = assay: NCI one-dose screening, colon cancer HCT-116; type: cell-based, human; conditions: 10 μM
# HCT-15 = assay: NCI one-dose screening, colon cancer HCT-15; type: cell-based, human; conditions: 10 μM
# KM12 = assay: NCI one-dose screening, colon cancer KM12; type: cell-based, human; conditions: 10 μM
# HT29 = assay: NCI one-dose screening, colon cancer HT29; type: cell-based, human; conditions: 10 μM
# SF-268 = assay: NCI one-dose screening, CNS cancer SF-268; type: cell-based, human; conditions: 10 μM
# SF-295 = assay: NCI one-dose screening, CNS cancer SF-295; type: cell-based, human; conditions: 10 μM
# SF-539 = assay: NCI one-dose screening, CNS cancer SF-539; type: cell-based, human; conditions: 10 μM
# SNB-19 = assay: NCI one-dose screening, CNS cancer SNB-19; type: cell-based, human; conditions: 10 μM
# SNB-75 = assay: NCI one-dose screening, CNS cancer SNB-75; type: cell-based, human; conditions: 10 μM
# U251 = assay: NCI one-dose screening, CNS cancer U251; type: cell-based, human; conditions: 10 μM
# LOX IMVI = assay: NCI one-dose screening, melanoma LOX IMVI; type: cell-based, human; conditions: 10 μM
# MALME-3M = assay: NCI one-dose screening, melanoma MALME-3M; type: cell-based, human; conditions: 10 μM
# M14 = assay: NCI one-dose screening, melanoma M14; type: cell-based, human; conditions: 10 μM
# UACC-62 = assay: NCI one-dose screening, melanoma UACC-62; type: cell-based, human; conditions: 10 μM
# UACC-257 = assay: NCI one-dose screening, melanoma UACC-257; type: cell-based, human; conditions: 10 μM
# SK-MEL-2 = assay: NCI one-dose screening, melanoma SK-MEL-2; type: cell-based, human; conditions: 10 μM
# SK-MEL-28 = assay: NCI one-dose screening, melanoma SK-MEL-28; type: cell-based, human; conditions: 10 μM
# SK-MEL-5 = assay: NCI one-dose screening, melanoma SK-MEL-5; type: cell-based, human; conditions: 10 μM
# IGROV1 = assay: NCI one-dose screening, ovarian cancer IGROV1; type: cell-based, human; conditions: 10 μM
# OVCAR-3 = assay: NCI one-dose screening, ovarian cancer OVCAR-3; type: cell-based, human; conditions: 10 μM
# OVCAR-5 = assay: NCI one-dose screening, ovarian cancer OVCAR-5; type: cell-based, human; conditions: 10 μM
# OVCAR-8 = assay: NCI one-dose screening, ovarian cancer OVCAR-8; type: cell-based, human; conditions: 10 μM
# SK-OV-3 = assay: NCI one-dose screening, ovarian cancer SK-OV-3; type: cell-based, human; conditions: 10 μM
# 786-O = assay: NCI one-dose screening, renal cancer 786-O; type: cell-based, human; conditions: 10 μM
# CAKI-1 = assay: NCI one-dose screening, renal cancer CAKI-1; type: cell-based, human; conditions: 10 μM
# [1] = NCI one-dose screening, renal cancer A489; type: cell-based, human; conditions: 10 μM
# ACHN = assay: NCI one-dose screening, renal cancer ACHN; type: cell-based, human; conditions: 10 μM
# SN12C = assay: NCI one-dose screening, renal cancer SN12C; type: cell-based, human; conditions: 10 μM
# TK-10 = assay: NCI one-dose screening, renal cancer TK-10; type: cell-based, human; conditions: 10 μM
# UO-31 = assay: NCI one-dose screening, renal cancer UO-31; type: cell-based, human; conditions: 10 μM
# RXF, 393 = assay: NCI one-dose screening, renal cancer RXF, 393; type: cell-based, human; conditions: 10 μM
# DU145 = assay: NCI one-dose screening, prostate cancer DU145; type: cell-based, human; conditions: 10 μM
# PC-3 = assay: NCI one-dose screening, prostate cancer PC-3; type: cell-based, human; conditions: 10 μM
# MCF7 = assay: NCI one-dose screening, breast cancer MCF7; type: cell-based, human; conditions: 10 μM
# MDA-MB-231/ATCC = assay: NCI one-dose screening, breast cancer MDA-MB-231/ATCC; type: cell-based, human; conditions: 10 μM
# MDA-MB-468 = assay: NCI one-dose screening, breast cancer MDA-MB-468; type: cell-based, human; conditions: 10 μM
# NCl/ADR-RES = assay: NCI one-dose screening, breast cancer NCl/ADR-RES; type: cell-based, human; conditions: 10 μM; listed under Ovarian cancer
# BT-549 = assay: NCI one-dose screening, breast cancer BT-549; type: cell-based, human; conditions: 10 μM
# T-47D = assay: NCI one-dose screening, breast cancer T-47D; type: cell-based, human; conditions: 10 μM
# MDA, -MB-435 = assay: NCI one-dose screening, breast cancer MDA, -MB-435; type: cell-based, human; conditions: 10 μM; listed under Melanoma
# human tumor cell lines = assay: NCI one-dose screening, Mean / Delta / Range of growth percent over all tested cell lines; type: cell-based; conditions: 10 μM
compound,measurement,setting,value
"O=C1c2ccccc2C(=O)c2c1cc(Sc1ccccn1)c1nsnc21 [C58, 4-(pyridin-2-yl-thio)anthra[2,1-c][1,2,5] thia-diazole-6,11-dione]",Growth Percent HL-60(TB),"HL-60, TB",−40.05%
same,Growth Percent MOLT-4,MOLT-4,−41.19%
same,Growth Percent SR,SR,0.05%
same,Growth Percent RPMI-8226,PRMI-8226 cell line,−4.48%
same,Growth Percent K562,K562cell line,−23.03%
same,Growth Percent EKVX,EKVX,97.65%
same,Growth Percent HOP-62,HOP-62,81.44%
same,Growth Percent HOP-92,HOP-92,−44.56%
same,Growth Percent NCI-H226,NCI-H226,82.43%
same,Growth Percent NCI-H23,NCI-H23,4.86%
same,Growth Percent NCI-H460,NCI-H460,89.65%
same,Growth Percent NCI-H522,NCI-H522,48.83%
same,Growth Percent A549/ATCC,A549/ATCC,96.53%
same,Growth Percent COLO 205,COLO 205,111.91%
same,Growth Percent HCC-2998,HCC-2998,106.02%
same,Growth Percent HCT-116,HCT-116,−84.89%
same,Growth Percent HCT-15,HCT-15,82.58%
same,Growth Percent KM12,KM12,87.50%
same,Growth Percent HT29,HT29,108.08%
same,Growth Percent SF-268,SF-268,37.83%
same,Growth Percent SF-295,SF-295,78.47%
same,Growth Percent SF-539,SF-539,93.92%
same,Growth Percent SNB-19,SNB-19,103.09%
same,Growth Percent SNB-75,SNB-75,70.82%
same,Growth Percent U251,U251,43.78%
same,Growth Percent LOX IMVI,LOX IMVI,−54.85%
same,Growth Percent MALME-3M,MALME-3M,18.08%
same,Growth Percent M14,M14,73.52%
same,Growth Percent UACC-62,UACC-62,69.46%
same,Growth Percent UACC-257,UACC-257,−10.49%
same,Growth Percent SK-MEL-2,SK-MEL-2,14.45%
same,Growth Percent SK-MEL-28,SK-MEL-28,108.55%
same,Growth Percent SK-MEL-5,SK-MEL-5,61.76%
same,Growth Percent IGROV1,IGROV1,−30.93%
same,Growth Percent OVCAR-3,OVCAR-3,−90.05%
same,Growth Percent OVCAR-5,OVCAR-5,118.16%
same,Growth Percent OVCAR-8,OVCAR-8,18.67%
same,Growth Percent SK-OV-3,SK-OV-3,115.11%
same,Growth Percent 786-0,786-O,−96.82%
same,Growth Percent CAKI-1,CAKI-1,59.22%
same,Growth Percent A498,[1],68.74%
same,Growth Percent ACHN,ACHN,−71.76%
same,Growth Percent SN12C,SN12C,77.39%
same,Growth Percent TK-10,TK-10,80.94%
same,Growth Percent UO-31,UO-31,−79.21%
same,Growth Percent RXF 393,"RXF, 393",60.19%
same,Growth Percent DU145,DU145,58.15%
same,Growth Percent PC-3,PC-3,14.77%
same,Growth Percent MCF7,MCF7,68.59%
same,Growth Percent MDA-MB-231/ATCC,MDA-MB-231/ATCC,4.55%
same,Growth Percent MDA-MB-468,MDA-MB-468,−80.08%
same,Growth Percent NCI/ADR-RES,NCl/ADR-RES,37.25%
same,Growth Percent BT-549,BT-549,76.58%
same,Growth Percent T-47D,T-47D,−52.85%
same,Growth Percent MDA-MB-435,"MDA, -MB-435",−80.50%
same,Growth Percent Delta,human tumor cell lines; delta over all cell lines,125.38%
same,Growth Percent Mean,human tumor cell lines; mean over all cell lines,28.56%
same,Growth Percent Range,human tumor cell lines; range over all cell lines,214.98%
